Columns and labels:
[1] = system: HCC-PDX model LIM612 (code 006); assay: Sorafenib antitumor activity in HCC HuPrime PDX model LIM612; format: in vivo, Balb/c nude mice; conditions: 50 mg/kg p.o. Qd × 22, P value 0.001
Description: (§1) Patient tumor samples and engraftment in immunocompromised mice. […] (<10).
(§2) Evaluation of antitumor activity.

[2] = system: HCC-PDX model LIM801 (code 012); conditions: 50 mg/kg p.o. 5 days on/2 days off, P value 0.001
Description: (§3) We were interested in identifying models that would respond or not respond to Sorafenib. To this end, we tested a cohort of randomly selected 21 HCC HuPrime by treating them with Sorafenib.
(§4) Patient tumor samples and engraftment in immunocompromised mice. Freshly and surgically removed tumor tissues were obtained from the patients diagnosed as HCC through collaboration with the Beijing Keluoen Translational Medicine Institute and Hebei Medical University Fourth Hospital with approval by the Institutional Review Boards of Hebei Medical University Fourth Hospital and the informed consents from patients. The engraftments of patient tumor fragments into immunocompromised mice subcutaneously have been broadly described by others. Briefly, the tumors were sliced into 3×3×3 mm3 fragments and inoculated subcutaneously on the flank of mice (Balb/c nude, 6-8 wks old, female, Beijing HFK Bioscience Co. Ltd., Beijing, China). The tumor growth was monitored twice weekly by using a caliper. The established tumor models from these patient samples, called passage 0 or P0, were serially re-engrafted to maintain tumors, these subsequent passages were called P1, 2, 3 . . . (<10). […]

[3] = system: HCC-PDX model LIM1054 (code 013); assay: Sorafenib antitumor activity in HCC HuPrime PDX model LIM1054; format: in vivo, Balb/c nude mice; conditions: 50 mg/kg p.o. qd × 14, P value 0.045
Description: as §1, §2

[4] = system: HCC-PDX model LIM752 (code 003); assay: Sorafenib antitumor activity in HCC HuPrime PDX model LIM752; format: in vivo, Balb/c nude mice; conditions: 50 mg/kg p.o. qd × 14, P value <0.001
Description: as §1, §2

[5] = system: HCC-PDX model LIM1074 (code 011); assay: Sorafenib antitumor activity in HCC HuPrime PDX model LIM1074; format: in vivo, Balb/c nude mice; conditions: 50 mg/kg p.o. qd × 13, P value 0.032
Description: as §1, §2

[6] = system: HCC-PDX model LIM1078 (code 018); assay: Sorafenib antitumor activity in HCC HuPrime PDX model LIM1078; format: in vivo, Balb/c nude mice; conditions: 50 mg/kg p.o. qd × 13, P value 0.055
Description: as §1, §2

[7] = system: HCC-PDX model LIMsh050 (code 020); assay: Sorafenib antitumor activity in HCC HuPrime PDX model LIMsh050; format: in vivo, Balb/c nude mice
Description: as §3, §4

[8] = system: HCC-PDX model LIM941 (code 010); assay: Sorafenib antitumor activity in HCC HuPrime PDX model LIM941; format: in vivo, Balb/c nude mice; conditions: 50 mg/kg p.o. 5 days on/2 days off, P value <0.001
Description: as §1, §2

[9] = system: HCC-PDX model LIM1088 (code 019); assay: Sorafenib antitumor activity in HCC HuPrime PDX model LIM1088; format: in vivo, Balb/c nude mice; conditions: 50 mg/kg p.o. qd × 13, P value 0.182
Description: as §1, §2

[10] = system: HCC-PDX model LIM1098 (code 005); assay: Sorafenib antitumor activity in HCC HuPrime PDX model LIM1098; format: in vivo, Balb/c nude mice; conditions: 50 mg/kg qd × 14 p.o., P value 0.008
Description: as §1, §2

[11] = system: HCC-PDX model LIM1097 (code 014); assay: Sorafenib antitumor activity in HCC HuPrime PDX model LIM1097; format: in vivo, Balb/c nude mice; conditions: 50 mg/kg p.o. qd × 14, P value 0.046
Description: as §1, §2

[12] = system: HCC-PDX model LIM1035 (code 007); assay: Sorafenib antitumor activity in HCC HuPrime PDX model LIM1035; format: in vivo, Balb/c nude mice; conditions: 50 mg/kg p.o. qd × 14, P value 0.005
Description: as §1, §2

[13] = system: HCC-PDX model LIM334 (code 021); assay: Sorafenib antitumor activity in HCC HuPrime PDX model LIM334; format: in vivo, Balb/c nude mice
Description: as §1, §2

[14] = system: HCC-PDX model LIM1005 (code 008); assay: Sorafenib antitumor activity in HCC HuPrime PDX model LIM1005; format: in vivo, Balb/c nude mice; conditions: 50 mg/kg p.o. qd × 14, P value 0.015
Description: as §1, §2

[15] = system: HCC-PDX model LIM1025 (code 002); assay: Sorafenib antitumor activity in HCC HuPrime PDX model LIM1025; format: in vivo, Balb/c nude mice; conditions: 50 mg/kg p.o. qd × 14, P value <0.001
Description: as §1, §2

[16] = system: HCC-PDX model LIM1081 (code 004); assay: Sorafenib antitumor activity in HCC HuPrime PDX model LIM1081; format: in vivo, Balb/c nude mice; conditions: 50 mg/kg p.o. qd × 13, P value 0.015
Description: as §1, §2

[17] = system: HCC-PDX model LIM1068 (code 016); assay: Sorafenib antitumor activity in HCC HuPrime PDX model LIM1068; format: in vivo, Balb/c nude mice; conditions: 50 mg/kg p.o. qd × 13, P value 0.024
Description: as §1, §2

[18] = system: cohort of 21 hepatocellular carcinoma (HCC) patient derived xenografts (PDXs); assay: Clinical trial-like study of Sorafenib in a cohort of 21 HCC HuPrime PDXs; format: in vivo, Balb/c nude mice; conditions: 13 out of 21 PDXs; daily oral Sorafenib 50 mg/kg
Description: as §1, §2
Patient derived xenografts (PDXs) are considered experimental models mimicking patient tumors, or “patient avatars”. We performed a clinical-like trial (phase II-like) using a cohort of 21 hepatocellular carcinoma (HCC) patient derived xenografts (PDXs), also called patient avatar trial, for testing their response to multi-kinase inhibitor Sorafenib. […] Gene expression profiles of these PDXs were analyzed to reveal the mRNA expression signatures that may be predictive of the response to Sorafenib. This signature can be potentially used to develop companion diagnostics to stratify patent treatment, or individualized treatment.

[19] = system: advanced hepatocellular carcinoma (HCC); conditions: background statement; cited from earlier work
[20] = system: HCC-PDX model LIM1057 (code 015); assay: Sorafenib antitumor activity in HCC HuPrime PDX model LIM1057; format: in vivo, Balb/c nude mice; conditions: p.o. 50 mg/kg, qd × 14, P value 0.003
Description: as §1, §2

[21] = system: HCC-PDX model LIF1069 (code 017); assay: Sorafenib antitumor activity in HCC HuPrime PDX model LIF1069; format: in vivo, Balb/c nude mice; conditions: 50 mg/kg p.o. qd × 14, P value 0.024
Description: as §1, §2

[22] = system: HCC-PDX model LIM574 (code 009); assay: Sorafenib antitumor activity in HCC HuPrime PDX model LIM574; format: in vivo, Balb/c nude mice; conditions: 50 mg/kg p.o. qd × 14, P value 0.002
Description: as §1, §2

CNC(=O)c1cc(Oc2ccc(NC(=O)Nc3ccc(Cl)c(C(F)(F)F)c3)cc2)ccn1 [Sorafenib]
ΔT/ΔC (day14-day15) [1]: 0.15
ΔT/ΔC (day14-day15) [2]: 0.37
ΔT/ΔC (day14-day15) [3]: 0.38
ΔT/ΔC (day14-day15) [4]: 0.10
ΔT/ΔC (day14-day15) [5]: 0.35
ΔT/ΔC (day14-day15) [6]: 0.48
model response to Sorafenib (in words) ([7]; model L10050, daily oral 50 mg/kg): quite or partially resistant
ΔT/ΔC (day14-day15) ([7]; model LIMsh050, 50 mg/kg p.o. qd × 14, P value 0.134): 0.78
ΔT/ΔC (day14-day15) [8]: 0.23
ΔT/ΔC (day14-day15) [9]: 0.54
ΔT/ΔC (day14-day15) [10]: 0.14
ΔT/ΔC (day14-day15) [11]: 0.41
ΔT/ΔC (day14-day15) [12]: 0.16
model response to Sorafenib (in words) ([13]; model L10334, daily oral 50 mg/kg): quite or partially resistant
ΔT/ΔC (day14-day15) ([13]; model LIM334, 50 mg/kg p.o. 5 days on/2 days off, P value 0.659): 1.13
ΔT/ΔC (day14-day15) [14]: 0.21
ΔT/ΔC (day14-day15) [15]: 0.01
ΔT/ΔC (day14-day15) [16]: 0.14
ΔT/ΔC (day14-day15) [17]: 0.47
PDXs that achieved effective tumor growth inhibition with % ΔT/ΔC<40% (p<0.05) [18]: 62%
increase survival for HCC patients [19]: 3 months
ΔT/ΔC (day14-day15) [20]: 0.43
ΔT/ΔC (day14-day15) [21]: 0.47
ΔT/ΔC (day14-day15) [22]: 0.21
